Values of other authors in patent US20210212947A1, “Docetaxel palmitate liposome and preparation method thereof” (SHANGHAI WEI ER BIOPHARMACEUTICAL TECH CO., LTD., priority 2018, published 2021).

Assays:
[1] = times that of paclitaxel

Q: What does the source list for `CC(=O)OC12COC1CC(O)C1(C)C(=O)C(O)C3=C(C)C(OC(=O)C(O)C(NC(=O)OC(C)(C)C)c4ccccc4)CC(O)(C(OC(=O)c4ccccc4)C21)C3(C)C` (stereo not drawn) [Docetaxel, [2aR-(2aα,4β,4aβ,6β,9α(aR*,βS*),11a,12a,12aα,12bα)]-β-[[(1,1dimethylethyl (Oxy)carbonyl]amino]-α-hydroxyphenylpropionic acid [12b-acetoxy-12-benzoyloxy-2a,3,4,4a,5,6,9,10,11,12,12a,12b -Dodecahydro-4,6,11-trihydroxy-4a,8,13,13-tetramethyl-5-oxo-7,11-methylene-1H-cyclodecpentaeno [3,4]Benzo [1,2-b]oxetane-9-yl]ester]?
A: solubility in organic solvents (organic solvents such as ethanol, acetone, ether and benzene): soluble; solubility in water (water): insoluble; anti-tumor activity relative to paclitaxel [1]: 1.3-12 times
